Reference: patent publication US9429582B2, “Tyrosine-phosphorylated WBP2, a novel cancer target and biomarker” (National University of Singapore, priority 2010, dated 2016)

How the values were obtained:
Assay type in all cases: cell-based, human
EGFR = EGFR activation (auto-phosphorylation) in EGF-stimulated HeLa (IB); settings: 50 ng/ml EGF 5 min, c-Src inhibition, 1 μM AZD0530
Method: A: HeLa were co-transfected with EGFR and V5-tagged WT or individual Y→F mutant of WBP2. 24 hr post-transfection, cells were serum-starved and stimulated with 50 ng/ml EGF for 5 min with/without 1 hr pre-treatment with 10 μM Iressa or 1 μM AZD0530. Whole cell lysates were used for IP/IB analysis with antibodies indicated. B: HeLa were co-transfected with EGFR and V5-tagged WT or individual Y→F mutant of WBP2 in the absence or presence of Src-DN overexpression. C: HeLa were co-transfected with (a) WBP2; (b) WBP2 and EGFR; (c) WBP2 and wild-type (WT) Src; (d) WBP2 and constitutively active (CA) Src; (e) WBP2, EGFR and WT-Src; (f) WBP2, EGFR ad CA-Src; (g) Y192-231F, EGFR and WT-Src. For experiments B and C, 24 hr post-transfection, cells were serum-starved overnight and stimulated with 50 ng/ml EGF for 5 min. Whole cell lysates were used for IP/IB analysis with antibodies indicated. D: HeLa were co-transfected with EGFR and V5-tagged WT or individual Y→F mutant of WBP2. 24 hrpost-transfection, cells were serum-starved and stimulated with 50 ng/ml EGF for 5 min with/without 1 hr pre-treatment with 10 μM Iressa or 1 μM AZD0530. Whole cell lysates were used for IP/IB analysis with antibodies indicated. E: HeLa were co-transfected with EGFR and V5-tagged WT or individual Y→F mutant of WBP2 in the absence or presence of Src-DN-K295M overexpression. […]

WBP2 = assay: EGF-induced WBP2 tyrosine phosphorylation in HeLa (IP/IB); settings: HeLa co-transfected with EGFR and WBP2; 50 ng/ml EGF 5 min; 1 hr pre-treatment with 1 μM AZD0530
Method: A: HeLa were co-transfected with EGFR and V5-tagged WT or individual Y→F mutant of WBP2. 24 hr post-transfection, cells were serum-starved and stimulated with 50 ng/ml EGF for 5 min with/without 1 hr pre-treatment with 10 μM Iressa or 1 μM AZD0530. Whole cell lysates were used for IP/IB analysis with antibodies indicated. B: HeLa were co-transfected with EGFR and V5-tagged WT or individual Y→F mutant of WBP2 in the absence or presence of Src-DN overexpression. C: HeLa were co-transfected with (a) WBP2; (b) WBP2 and EGFR; (c) WBP2 and wild-type (WT) Src; (d) WBP2 and constitutively active (CA) Src; (e) WBP2, EGFR and WT-Src; (f) WBP2, EGFR ad CA-Src; (g) Y192-231F, EGFR and WT-Src. For experiments B and C, 24 hr post-transfection, cells were serum-starved overnight and stimulated with 50 ng/ml EGF for 5 min. Whole cell lysates were used for IP/IB analysis with antibodies indicated. D: HeLa were co-transfected with EGFR and V5-tagged WT or individual Y→F mutant of WBP2. 24 hrpost-transfection, cells were serum-starved and stimulated with 50 ng/ml EGF for 5 min with/without 1 hr pre-treatment with 10 μM Iressa or 1 μM AZD0530. Whole cell lysates were used for IP/IB analysis with antibodies indicated. E: HeLa were co-transfected with EGFR and V5-tagged WT or individual Y→F mutant of WBP2 in the absence or presence of Src-DN-K295M overexpression. F: HeLa were cotransfected with (a) WBP2; (b) WBP2 and EGFR; (c) WBP2 and wild-type (WT) Src; (d) WBP2 and constitutively-active (CA) Src-Y529F; (e) WBP2, EGFR and WT-Src; (f) WBP2, EGFR ad CA-Src; (g) Y192-231F, EGFR and WT-Src. For experiments B and C, 24 hr post-transfection, cells were serum-starved overnight and stimulated with 50 ng/ml EGF for 5 min. Whole cell lysates were used for IP/IB analysis with antibodies indicated. G: MCF7 were co-transfected with V5-tagged WBP2 and either negative control siRNA, c-Yes siRNA or c-Src siRNA. For both experiments, 24 hr post-transfection, cells were serum-starved overnight and stimulated with 50 ng/ml EGF for 5 min. Whole cell lysates were used for IP/IB analysis with antibodies indicated. […]

[1] = tested on: YAP, ERα, cyclin D1, Wnt3a, pGSKβ, β-catenin, c-Myc, Bcl-2, c-Yes, p16, p21, MMP2; assay: Immunoblot of Y192-231E mutant expressing MCF7 with WBP2 knockdown; settings: WBP2 expression silenced in WBP2 Y192-231E stable transfectant
Method: A: Whole cell lysates from vector, WBP2-WT, WBP2-Y192-231E mutant and WBP2-Y192-231F mutant expressing MCF7 or Y192-231E mutant expressing MCF7 with WBP2 knockdown were used for IB analysis with antibodies indicated. B: Vector, WBP2-WT, WBP2-Y192-231E mutant or WBP2-Y192-231F mutant-expressing MCF7 were co-transfected with TOPFlash (top panel) or ERE-Luciferase (bottom panel) reporter construct. For cells co-transfected ERE-luciferase, they were either left alone or stimulated with 50 ng/ml Wnt3a ligand for 16 hrs. TCF/ERα luciferase activities in various conditions were then assayed. **P<0.01, ***P<0.001, Student's t-test (2-tailed). […] Cell numbers were measured. […]
Whole cell lysates from vector, WBP2-WT, WBP2-Y192-231E mutant and WBP2-Y192-231F mutant expressing MCF7 (A) or Y192-231E mutant expressing MCF7 with WBP2 knockdown (B) were used for IB analysis with antibodies indicated. Their expression levels were quantified in three independent experiments and the averages were presented relative to actin. […] TCF(C)/ER[…](D) luciferase activities in various conditions were then assayed and analyzed in relative to untreated vector control. **P<0.01, ***P<0.001, Student's t-test (2-tailed). […] Cell numbers were measured daily and compared in relative to vehicle treated vector-expressing cells on Day 0. […] Cell numbers were measured and compared in relative to vehicle-treated cells. […]

Compound | EGFR activation (EGFR auto-phosphorylation) (EGFR) | EGF-induced tyrosine phosphorylation of WBP2 (WBP2) | expression of c-Yes, p16, p21 and active MMP2 [1] | expressions of YAP, ERα, cyclin D1, Wnt3a, pGSKβ, β-catenin, c-Myc [1]
CN1CCN(CCOc2cc(OC3CCOCC3)c3c(Nc4c(Cl)ccc5c4OCO5)ncnc3c2)CC1 [AZD0530] | significant reduction | abolished | – | –
5′-AGCAUCCGCUGUCCGAACUCAAUGG-3′ ((5'-AGCAUCCGCUGUCCGAACUCAAUGG-3'; as printed in the source, key not given here) [WBP2 siRNA, small interfering RNA designed to suppress the expression of WBP2] | – | – | remained unchanged | suppressed
